Values of other authors in patent publication US7638270B2, “Nucleic acids and corresponding proteins entitled 254P1D6B useful in treatment and detection of cancer” (Agensys, Inc., priority 2003, dated 2009).

Tested on: HLA-DR alleles

binding to HLA-DR alleles: bind to most HLA-DR alleles
Substance: xKXVAAWTLKAAx: pan-DR-binding epitope peptide (SEQ ID NO: 16); X is cyclohexylalanine, phenylalanine or tyrosine
stimulation of the response of T helper lymphocytes (regardless of HLA type): stimulate the response of T helper lymphocytes from most individuals
